According to patent publication US20080280920A1, “Plasminogen Activator Inhibitor-1 Inhibitors” (priority 2005, published 2008):

What was measured:
wildtype human PAI-1 = biological target: T1, wildtype human PAI-1 (Homo sapiens, UniProt P05121); test: PAI-1/uPA assay (residual uPA activity, fluorescent substrate SpectroFluor); assay type: biochemical; conditions: for Percent PAI-1 inhibition: at the concentration given, percent of activity of untreated PAI-1; for Conc. of compound required for PAI-1 inhibition: concentration giving the percent inhibition, 6 nM PAI-1, 8 nM uPA
T1 construct: purchased Molecular Innovations Lot# HWT-804
Procedure: Principle: The assay is based on using a fluorescent substrate (SpectroFluor) to measure residual uPA following inhibition of uPA by PAI-1. PAI-1 used in the assay is pre-treated in the presence of increasing concentrations of the lead compounds to screen for any inhibitory effects on PAI-1. Method: This assay was performed in 96 well microtiter plates. The concentrations of uPA (8 nM) and PAI-1 (6 nM) used in this assay were carefully optimized when using the fluorescent substrate, SpectroFluor™. Stock solutions (10 mM) of all lead compounds were prepared fresh in DMSO. […] 20 μl of 6 nM wildtype human PAI-1 (Molecular Innovations, Lot# HWT-804) was incubated for 15-20 minutes at room temperature in 96 well microtiter plates either with buffer, (50 mM HEPES, 150 mM NaCl, 0.05% Tween-20, 1% BSA, pH 6.6) or various concentrations (10 nM to 100 μM final concentration) of lead compounds in a total volume of 80 μl. A 20 μl aliquot of 8 nM uPA (HMW) solution in 0.05M Tris Buffered™ saline (TBS), pH 8.4 was added to each well and the mixture incubated for an additional 5 minutes at RT. The proteolytic reaction was initiated by addition of 50 μl of 0.1 mM SpectroFluor (Spectrozyme UK Fluorogenic substrate) to each well. The kinetics of the free chromophore, 7-amino-4-methylcoumarin (AMC) released in the course of peptide cleavage by the protease, uPA, was monitored for 30 minutes at 37° C. on a spectrofluorometric microplate reader with an excitation wavelength of 360 nm and emission wavelength of 440 nm. Kinetic data regarding the rate of substrate cleavage by uPA was acquired with Softmax PrO™ software. The difference between the residual uPA activity in the presence or absence of untreated PAI-1, at the molar ratio used, was considered as the “total” PAI-1 activity (100%). The inhibition of uPA by PAI-1 treated with lead compounds was expressed as a percentage of the initial activity of untreated PAI-1. Controls were performed during each experiment to ensure the nearly complete inhibition of uPA by untreated PAI-1 and also to ensure the absence of any direct effect of the lead compounds on uPA alone or on SpectroFluor.

[1] = biological target: T2, PAI-1 interaction with vitronectin (Homo sapiens, UniProt P05121); test: PAI-1 vitronectin interaction ELISA; assay type: binding; conditions: 15 nM PAI-1, vitronectin coated plates
T2 construct: purchased Molecular Innovations
Procedure: Principle: This ELISA assay is based on the interaction of wildtype human PAI-1 (aa 110-145) with the N-terminal somatomedin B-like (SMB) domain (aa 1-40) on vitronectin. PAI-1 was allowed to bind to vitronectin coated plates. The bound PAI-1 was detected with a HRP-conjugated polyclonal goat anti-human PAI-1 antibody using a standard ELISA method. In order to screen these compounds for their ability to disrupt PAI-1's interaction with vitronectin, PAI-1 was pre-incubated with various concentrations of the lead compounds before being allowed to bind to vitronectin.
Method: Human monomeric vitronectin (Vn; Molecular Innovations) was diluted to a concentration of 2.5 μg/ml in a buffer containing 100 mM Na2CO3, pH 9.6. […]
In a separate 96-well microtiter plate 20 μL per well of wildtype human PAI-1 (15 nM final concentration) was added with or without various concentrations of lead compounds (1 μM to 1000 μM final concentration) and incubated at room temperature for 15 minutes on a rotating shaker. […] Optical density was measured at 450 nm on a SoftMax PrO™ plate reader.
Where vitronectin inhibition was evident, IC50 values for a test compound were calculated by fitting a non-linear sigmoidal regression curve to log micromolar concentration versus optical density data.

T1 sequence (P05121 24-402): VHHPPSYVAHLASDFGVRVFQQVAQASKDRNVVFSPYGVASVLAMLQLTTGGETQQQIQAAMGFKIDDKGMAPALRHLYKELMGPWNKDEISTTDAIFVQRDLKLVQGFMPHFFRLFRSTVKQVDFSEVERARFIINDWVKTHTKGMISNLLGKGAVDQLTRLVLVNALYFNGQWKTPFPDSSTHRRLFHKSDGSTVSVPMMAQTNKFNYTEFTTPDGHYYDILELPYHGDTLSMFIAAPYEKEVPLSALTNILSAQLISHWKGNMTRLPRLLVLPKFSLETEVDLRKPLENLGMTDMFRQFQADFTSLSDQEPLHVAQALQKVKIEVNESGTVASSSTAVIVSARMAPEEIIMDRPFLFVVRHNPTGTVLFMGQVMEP
T2 sequence (P05121 24-402): as above

| Percent PAI-1 inhibition (wildtype human PAI-1) | Conc. of compound required for PAI-1 inhibition (wildtype human PAI-1) [µM] | IC50 [1] [µM] | Compound |
| --- | --- | --- | --- |
| 23 | 10 | 910 | CCOC(=O)[C@H](CCCNC(=N)NS(=O)(=O)c1c(C)cc(OC)c(C)c1C)NC(=O)N[C@@H](Cc1csc2ccccc12)C(=O)OCC [Compound Q012059, (2S)-2-[({[(1S)-1-carboxy-2-(thianaphthen-3-yl)ethyl]amino}carbonyl)amino]-5-({imino[(4-methoxy-2,3,6-trimethylphenylsulfonyl)amino]methyl}amino)pentanoic acid diethyl ester] |
| 57 | 5 | 340 | COc1cc(CNCCCn2ccnc2)cc(CN2CCN(c3ncccn3)CC2)c1O [Compound Q012110, 2-Methoxy-4-({3-[(1H-imidazol-1-yl)propyl]amino}methyl)-6-[(4-pyrimidin-2-ylpiperazin-1-yl)methyl]phenol] |
